Our source for the Inhibition and inhibition values is ChEMBL document CHEMBL1136124, “Copper complex of hydroxyl-substituted triazamacrocyclic ligand and its antitumor activity” (2003).

Experiment [1] relates to HXO-RB44 cell line. In words: In vitro antitumor activity of concentration of 10-6 mol.L-1 against HXO-RB44 cell line using MTT assay. Format: functional, Homo sapiens. The note with it: for inhibition: Homo sapiens. A general note: Tetrazolium assays rely on reduction of a dye to a coloured formazan, in cell work by metabolically active cells.
Experiment [2] relates to Bel-7402. Kind of experiment: In vitro antitumor activity of compound at a concentration 10-4 mol.L-1 against BEL-7402 cell line using MTT assay. It counts as functional, Homo sapiens. The note with it: for inhibition: Homo sapiens.
Experiment [3] concerns HXO-RB44 cell line. Kind of experiment: In vitro antitumor activity of concentration of 10-4 mol.L-1 against HXO-RB44 cell line using MTT assay. It counts as functional, Homo sapiens. The note with it: for inhibition: Homo sapiens.
Experiment [4] deals with HXO-RB44 cell line. In words: In vitro antitumor activity of concentration of 10-5 mol.L-1 against HXO-RB44 cell line using MTT assay. It counts as functional, Homo sapiens. The note with it: for inhibition: Homo sapiens.
The test system of experiment [5] is Bel-7402. Kind of experiment: In vitro antitumor activity of concentration of 10-3 mol.L-1 against BEL-7402 cell line using MTT assay. Format: functional, Homo sapiens. The note with it: for inhibition: Homo sapiens.
Experiment [6] relates to Bel-7402. Kind of experiment: In vitro antitumor activity of compound at a […] mol.L-1 against BEL-7402 cell line using MTT assay. It counts as functional, cell-based. The note with it: Homo sapiens.

Regarding `OC1CNCCNCCNC1`, the Inhibition (in general, the share of the control response that was lost under treatment) in the experiment on HXO-RB44 cell line [1] came out at 1%; in the experiment with Bel-7402 [2], 16%; with HXO-RB44 cell line [3], 3%; in the experiment with HXO-RB44 cell line [4] it was 3%; in the experiment on Bel-7402 [5] it was 34%.

Consider COPPER, for which the inhibition (in general, the change of the read-out against control, counted positive when it falls) in the experiment on HXO-RB44 cell line [1] is 0%; with Bel-7402 [2], 3%; in the experiment with HXO-RB44 cell line [3], 5%; in the experiment on HXO-RB44 cell line [4] it was 3%; in the experiment on Bel-7402 [5], 81%; with Bel-7402 [6] it was 2%.

As for [1,4,7]Triazecan-9-ol copper complex, the inhibition was 2% with HXO-RB44 cell line [1]; 47% with Bel-7402 [2]; 64% with HXO-RB44 cell line [3]; 13% in the experiment on HXO-RB44 cell line [4]; 97% with Bel-7402 [5]; 11% in the experiment on Bel-7402 [6].
